According to ChEMBL document CHEMBL4483862, “Open-source discovery of chemical leads for next-generation chemoprotective antimalarials” (2018):

Test system: Plasmodium berghei
Assay: Luciferase/luciferin-expressing antifolate-resistant parasites were used to infect a culture of HepG2 cells that were pre-incubated with compounds. Infected hepatocytes emit light due to the luciferase reaction. Assay results are presented as the percent inhibition of light emission compared to control. […]
Assay type: functional
Details: sporozoite; for IC90: read-out: LUCIFERASE INFECTION ASSAY - IC90

## CCOc1ccc(C(=O)NCc2ccco2)cc1Cl
PBLUC_HILL_SLOPE 19.7, PBLUC_R_SQUARED 0.665, read-out: LUCIFERASE INFECTION ASSAY - IC50
  IC50: 11.5 µM
  IC90: > 11.8 µM

## CCCCn1c(=O)[nH]c(=O)c2c1nc(-c1ccc(C)c([N+](=O)[O-])c1)n2CC
PBLUC_HILL_SLOPE 20.6, PBLUC_R_SQUARED 0.559, read-out: LUCIFERASE INFECTION ASSAY - IC50
  IC50: 3.35 µM
  IC90: 3.73 µM

## Clc1ccc(CN=C(Nc2ccccc2)NC2CCCCC2)cc1
PBLUC_HILL_SLOPE 18.9, PBLUC_R_SQUARED 0.472, read-out: LUCIFERASE INFECTION ASSAY - IC50
  IC50: 8.42 µM
  IC90: 9.45 µM

## CN(C)c1nn(C(=O)Nc2cccc(C(F)(F)F)c2)cc1-c1ccccc1
PBLUC_HILL_SLOPE 19.3, PBLUC_R_SQUARED 0.463, read-out: LUCIFERASE INFECTION ASSAY - IC50
  IC50: 7.52 µM
  IC90: 8.43 µM

## O=C(NC1CCCC1)c1ccc(-c2cn3c(-c4ccc(CO)cc4)cnc3cn2)cc1
PBLUC_HILL_SLOPE 20, PBLUC_R_SQUARED 0.468, read-out: LUCIFERASE INFECTION ASSAY - IC50
  IC50: 6.98 µM
  IC90: 7.79 µM

## COc1cccc(-c2cn3c(-c4cccc(O)c4)cnc3cn2)c1F
PBLUC_HILL_SLOPE 18.9, PBLUC_R_SQUARED 0.523, read-out: LUCIFERASE INFECTION ASSAY - IC50
  IC50: 3.28 µM
  IC90: 3.69 µM

## Cc1cc(-c2cn3c(-c4ccncc4)cnc3cn2)cc(C)c1O
PBLUC_HILL_SLOPE 18.9, PBLUC_R_SQUARED 0.365, read-out: LUCIFERASE INFECTION ASSAY - IC50
  IC50: 8.93 µM
  IC90: 10 µM

## Nc1nc(Sc2ncnc3sccc23)nc2sccc12
PBLUC_HILL_SLOPE 20, PBLUC_R_SQUARED 0.321, read-out: LUCIFERASE INFECTION ASSAY - IC50
  IC50: 7.96 µM
  IC90: 8.89 µM

## COc1cc(/C=C/C(=O)c2ccc(C#N)cc2)cc(Br)c1OCC(=O)N(C)C
PBLUC_HILL_SLOPE 20.1, PBLUC_R_SQUARED 0.243, read-out: LUCIFERASE INFECTION ASSAY - IC50
  IC50: 9.62 µM
  IC90: > 10 µM

## CC(C)(C)c1ccc(C2Nc3ccccc3C(=O)N2C2CC2)cc1 (stereo not given)
PBLUC_HILL_SLOPE 18.7, PBLUC_R_SQUARED 0.174, read-out: LUCIFERASE INFECTION ASSAY - IC50
  IC50: 8.81 µM
  IC90: 9.91 µM

## COc1cncc(-c2cncc(Nc3cccc(Cl)c3)c2)c1
PBLUC_HILL_SLOPE 20.7, PBLUC_R_SQUARED 0.436, read-out: LUCIFERASE INFECTION ASSAY - IC50
  IC50: 8.86 µM
  IC90: 9.85 µM

## COc1cccc(N(C)S(=O)(=O)c2cccc3cc(C)cnc23)n1
PBLUC_HILL_SLOPE 18.8, PBLUC_R_SQUARED 0.316, read-out: LUCIFERASE INFECTION ASSAY - IC50
  IC50: 3.4 µM
  IC90: 3.82 µM

## CN(C)c1cccc(-c2ccc3ncc(-c4ccoc4)n3n2)c1
PBLUC_HILL_SLOPE 19.8, PBLUC_R_SQUARED 0.226, read-out: LUCIFERASE INFECTION ASSAY - IC50
  IC50: 8.49 µM
  IC90: 9.49 µM

## CC(=O)N(C)c1cccc(-c2cc3c(Nc4cccc(C(C)C)c4)nccc3n2C)c1
PBLUC_HILL_SLOPE 18.8, PBLUC_R_SQUARED 0.545, read-out: LUCIFERASE INFECTION ASSAY - IC50
  IC50: 3.34 µM
  IC90: 3.76 µM

## O=C(Nc1nn[nH]n1)c1ccc(S(=O)(=O)N2CCCCCC2)cc1
PBLUC_HILL_SLOPE 18.6, PBLUC_R_SQUARED 0.124, read-out: LUCIFERASE INFECTION ASSAY - IC50
  IC50: 8.88 µM
  IC90: 9.99 µM

## O=C(NC(c1ccccc1)C1CC1)C1=NN(c2ccccc2)C(=O)CN1 (stereo not given)
PBLUC_HILL_SLOPE 18.7, PBLUC_R_SQUARED 0.556, read-out: LUCIFERASE INFECTION ASSAY - IC50
  IC50: 8.76 µM
  IC90: 9.85 µM

## O=c1c(Cl)c(Cl)cnn1-c1ccc(S(=O)(=O)NCCc2ccc3c(c2)OCCO3)cc1
PBLUC_HILL_SLOPE 21.5, PBLUC_R_SQUARED 0.289, read-out: LUCIFERASE INFECTION ASSAY - IC50
  IC50: 9.64 µM
  IC90: > 10 µM

## NC(=O)c1ccc(-c2cc(-c3ccccc3Oc3ccccc3)cnc2N)cc1
PBLUC_HILL_SLOPE 21, PBLUC_R_SQUARED 0.292, read-out: LUCIFERASE INFECTION ASSAY - IC50
  IC50: 2.68 µM
  IC90: 2.98 µM

## CCOc1cccc(-c2cn3c(-c4ccc(C(=O)N5CCN(C)CC5)cc4)cnc3cn2)c1
PBLUC_HILL_SLOPE 18.7, PBLUC_R_SQUARED 0.82, read-out: LUCIFERASE INFECTION ASSAY - IC50
  IC50: 6.48 µM
  IC90: 7.28 µM

## Cc1ccc(NS(=O)(=O)c2ccc(NN=CC3C(=O)N(c4cccc(C(F)(F)F)c4)C(=O)c4ccccc43)c([N+](=O)[O-])c2)c(C)c1 (stereo not given)
PBLUC_HILL_SLOPE 19.2, PBLUC_R_SQUARED 0.393, read-out: LUCIFERASE INFECTION ASSAY - IC50
  IC50: 9.75 µM
  IC90: > 10 µM

## CC(OC(=O)c1cccc(NC(=O)c2cccs2)c1)C(=O)C12CC3CC(CC(C3)C1)C2 (stereo not given)
PBLUC_HILL_SLOPE 20.8, PBLUC_R_SQUARED 0.61, read-out: LUCIFERASE INFECTION ASSAY - IC50
  IC50: 3.22 µM
  IC90: 3.57 µM

## Cc1ccnc2nc(C(=O)Nc3cc(C(F)(F)F)ccc3N3CCCCCC3)nn12
PBLUC_HILL_SLOPE 19, PBLUC_R_SQUARED 0.744, read-out: LUCIFERASE INFECTION ASSAY - IC50
  IC50: 0.368 µM
  IC90: 0.413 µM

## C/C(=N\NC(=S)Nc1cccc(C(F)(F)F)c1)c1cc(Cl)cc(Cl)c1O
PBLUC_HILL_SLOPE 20.9, PBLUC_R_SQUARED 0.295, read-out: LUCIFERASE INFECTION ASSAY - IC50
  IC50: 7.78 µM
  IC90: > 7.82 µM

## CC(C)(C)c1ccccc1NC(=O)c1csc(N2CCN(CCc3ccccc3)C2=O)n1
PBLUC_HILL_SLOPE 20.4, PBLUC_R_SQUARED 0.59, read-out: LUCIFERASE INFECTION ASSAY - IC50
  IC50: 9.01 µM
  IC90: > 10 µM

## Cc1cnc(NC(=O)C2CCN(S(=O)(=O)c3ccc(Cl)cc3)CC2)s1
PBLUC_HILL_SLOPE 19, PBLUC_R_SQUARED 0.695, read-out: LUCIFERASE INFECTION ASSAY - IC50
  IC50: 2.79 µM
  IC90: 3.13 µM

## CC(OC(=O)c1ccccc1Nc1ccc(F)cc1)C(=O)N1CCCC1 (stereo not given)
PBLUC_HILL_SLOPE 20.8, 17.7, PBLUC_R_SQUARED 0.125, 0.439, read-out: LUCIFERASE INFECTION ASSAY - IC50
  IC50: 8.95 µM
  IC90: 9.97 µM

## CCN1CCN(c2ccc(NC(=O)c3csc(COc4ccc(F)cc4)n3)c(C)c2)CC1
PBLUC_HILL_SLOPE 19.9, PBLUC_R_SQUARED 0.58, read-out: LUCIFERASE INFECTION ASSAY - IC50
  IC50: 3.97 µM
  IC90: 4.43 µM

## CC(C)N(C(=O)COC(=O)c1ccccc1-c1nc2ccccc2s1)c1ccccc1
PBLUC_HILL_SLOPE 20.1, PBLUC_R_SQUARED 0.325, read-out: LUCIFERASE INFECTION ASSAY - IC50
  IC50: 9.13 µM
  IC90: > 10 µM

## COc1ccc(-c2cnc3cnc(-c4cccc(C(=O)NCCO)c4)cn23)cc1
PBLUC_HILL_SLOPE 19.3, PBLUC_R_SQUARED 0.197, read-out: LUCIFERASE INFECTION ASSAY - IC50
  IC50: 7.33 µM
  IC90: 8.22 µM

## Fc1ccc(COc2ccc3ccccc3c2CNCc2ccccn2)cc1
PBLUC_HILL_SLOPE 18.6, PBLUC_R_SQUARED 0.616, read-out: LUCIFERASE INFECTION ASSAY - IC50
  IC50: 8.21 µM
  IC90: > 8.86 µM

## O=C(NCC(=O)N1CCCC1)c1cccc2c3c([nH]c12)CCCCC3
PBLUC_HILL_SLOPE 19.4, PBLUC_R_SQUARED 0.17, read-out: LUCIFERASE INFECTION ASSAY - IC50
  IC50: 3.32 µM
  IC90: 3.72 µM

## CC/N=c1\scc(-c2ccc(Cl)cc2)n1/N=C/c1ccc[nH]1
PBLUC_HILL_SLOPE 20.7, PBLUC_R_SQUARED 0.413, read-out: LUCIFERASE INFECTION ASSAY - IC50
  IC50: 0.374 µM
  IC90: 0.416 µM

## COc1cc(NC(=O)Nc2ccc3nc(Cc4ccccc4)nn3c2)cc(OC)c1OC
PBLUC_HILL_SLOPE 20.6, PBLUC_R_SQUARED 0.32, read-out: LUCIFERASE INFECTION ASSAY - IC50
  IC50: 3.87 µM
  IC90: 4.31 µM

## Cc1nn(Cc2ccccc2Cl)c2sc(C(=O)OC(C)c3nc(=O)c4ccccc4[nH]3)cc12 (stereo not given)
PBLUC_HILL_SLOPE 18.8, PBLUC_R_SQUARED 0.168, read-out: LUCIFERASE INFECTION ASSAY - IC50
  IC50: 9.99 µM
  IC90: > 10 µM

## Cc1csc(NC(=O)c2ccc3[nH]c4c(c3c2)CC(C)CC4)n1 (stereo not given)
PBLUC_HILL_SLOPE 21.4, PBLUC_R_SQUARED 0.315, read-out: LUCIFERASE INFECTION ASSAY - IC50
  IC50: 9.45 µM
  IC90: > 10 µM

## COc1ccccc1CNC(=O)Nc1nc(C(N)Cc2ccc(C(F)(F)F)cc2)cs1 (stereo not given)
PBLUC_HILL_SLOPE 20.8, PBLUC_R_SQUARED 0.198, read-out: LUCIFERASE INFECTION ASSAY - IC50
  IC50: 6.4 µM
  IC90: 7.12 µM

## CCCCOc1ccc(Nc2nc(C(N)Cc3ccc(F)cc3)cs2)nn1 (stereo not given)
PBLUC_HILL_SLOPE 19.3, PBLUC_R_SQUARED 0.0642, read-out: LUCIFERASE INFECTION ASSAY - IC50
  IC50: 8.34 µM
  IC90: > 8.52 µM

## O=C(c1ccc(-n2cnc3ccccc3c2=O)cc1)N1CCN(S(=O)(=O)c2ccc3ccccc3c2)CC1
PBLUC_HILL_SLOPE 18.8, PBLUC_R_SQUARED 0.0296, read-out: LUCIFERASE INFECTION ASSAY - IC50
  IC50: 9.48 µM
  IC90: > 10 µM

## CC1CN(Cc2csc(Nc3ccccc3)n2)CC(C)O1 (stereo not given)
PBLUC_HILL_SLOPE 20.5, 3.85, PBLUC_R_SQUARED 0.234, 0.496, read-out: LUCIFERASE INFECTION ASSAY - IC50
  IC50: 7.33 µM
  IC90: 9.23 µM

## O=C1C=CC(=O)N1c1ccccc1Br
PBLUC_HILL_SLOPE 18.8, PBLUC_R_SQUARED 0.535, read-out: LUCIFERASE INFECTION ASSAY - IC50
  IC50: 12.7 µM
  IC90: > 13.1 µM
